pIC50: −log10 of the molar value. Like-named read-outs stand apart in the source and are kept apart here.
Target: T1, Cav3.2 channel (Homo sapiens, UniProt O95180)
T1 construct: expressed in transfected cells; host or cells: HEK-293, tetracycline inducible expression system (Invitrogen)
Test: Whole-cell patch clamp of T-type Cav3.2 channel expressed in HEK293 cells
Assay type: cell-based
Details: for pIC50: Table 1, tested at at least 4 concentrations, read-out: IC50
Protocol: Cav3.1, Cav3.2 or Cav3.3 channels were expressed in human embryonic kidney (HEK)-293 cells using a tetracycline inducible expression system (Invitrogen). Cells were maintained in 25 cm^2 tissue culture flasks at 37° C., 5% CO2, and 100% relative humidity in D-MEM/F12 (Dulbecco's Modified Eagle Medium/Nutrient Mixture F-12; Gibco) supplemented with fetal bovine serum (FBS, 10% v/v), sodium pyruvate (0.5 mM, Gibco), penicillin-streptomycin (100 U/mL, 100 μg/mL) and Geneticin® Selective antibiotic (G418; 0.5 mg/mL). Cells were detached from the flask base using a non-enzymatic cell dissociation solution (Cellstripper, Corning), removed and re-seeded on to poly-D-lysine coated glass coverslips in 35 mm dishes. Cells in dishes were further supplemented with G418 at a final concentration of 1 mg/mL and after 24 hours, expression of Cav3.2 was induced with 1 μg/mL tetracycline. The medium for the HEK-293 cells was composed of D-MEM/F-12 (Dulbecco's Modified Eagle Medium/Nutrient Mixture F-12; Gibco, #11330-032) and 15 mM HEPES buffer, with L-glutamine and pyridoxine hydrochloride. It was supplemented with FBS (Fetal Bovine Serum), P/S (Penicillin/Streptomycin) (Gibco, #15140-122), and sodium pyruvate 100 mM (Gibco, #11360-070). At least 24 hours before the assay, expression of the alpha-2-delta-1 and beta2a subunits of the calcium channel were induced with 1 ug/mL tetracycline.
Whole-cell voltage clamp recordings were performed on rat or mouse DRG neurons within 2 days after acutely dissociation or cultured HEK293 cells expressing T-type channels (encoded by Cav3.1, Cav3.2 or Cav3.3 channels). All experiments were performed at room temperature (around 21° C.). Whole-cell currents were recorded using a MultiClamp 700B amplifier and analyzed offline with pCLAMP10.4 software (Molecular Devices, LLC, Sunnyvale Calif., USA). To record calcium currents in DRG and HEK293 cells, the external solution was composed (in mM) of 115 choline-Cl, 30 TEA-Cl, 2 CaCl2, 10 glucose and 10 HEPES (pH 7.3-7.4 adjusted with TEA-OH; osmolality verified as 295 mOsm/kg). The internal solution was composed (in mM) of 125 CsCl, 10 HEPES (acid), 10 EGTA (ethylene glycol tetraacetic acid), 1 CaCl2, 1 MgCl2, 4 MgATP and 0.3 MgGTP (pH 7.3-7.4 adjusted with CsOH; osmolality verified as 295 mOsm/kg). Since the sodium ions were absent in the external solution, tetrodoctoxin was not needed. Calcium currents were recorded at a holding potential of −100 mV and then depolarized to −30 mV for 100 ms to activate either Cav3.1, Cav3.2, or Cav3.3 expressed in HEK cells. An interpulse interval of 10 seconds allowed the channel recovery from inactivation, and achieved stable current recordings. To record sodium (Na^+) currents in DRG neurons, the external solution used the modified Krebs solution specified above. The internal solution was composed (in mM) of 120 CsF, 10 HEPES, 11 EGTA, 1 CaCl2, 1 MgCl2, 10 TEA-Cl, 4 MgATP and 0.3 MgGTP (pH 7.3-7.4 adjusted with CsOH). […] To record potassium currents in DRG neurons, the external solution used the modified Kreb's solution specified above. The internal solution was composed (in mM) of 65 KCl, 80 KF, 5 KOH, 10 EGTA, 2 MgATP (pH 7.3-7.4 adjusted with KOH). Recording electrodes were fabricated using a P-87 puller (Sutter Instrument Co., Novato, Calif., USA). The tip of resistance was 3-4 MQ in bath and the series resistance was less than 10 MΩ after whole cell configuration. All reagents were purchased from Sigma unless specified otherwise. Test compounds were usually applied via a rapid solution exchange system with 8 fine polyplastic tubings (100 μm, OD) glued in a holder in parallel and located closely to the recorded cells. […]

[1] = HEK293, Table 1 primary screening

T1 sequence (O95180 whole entry): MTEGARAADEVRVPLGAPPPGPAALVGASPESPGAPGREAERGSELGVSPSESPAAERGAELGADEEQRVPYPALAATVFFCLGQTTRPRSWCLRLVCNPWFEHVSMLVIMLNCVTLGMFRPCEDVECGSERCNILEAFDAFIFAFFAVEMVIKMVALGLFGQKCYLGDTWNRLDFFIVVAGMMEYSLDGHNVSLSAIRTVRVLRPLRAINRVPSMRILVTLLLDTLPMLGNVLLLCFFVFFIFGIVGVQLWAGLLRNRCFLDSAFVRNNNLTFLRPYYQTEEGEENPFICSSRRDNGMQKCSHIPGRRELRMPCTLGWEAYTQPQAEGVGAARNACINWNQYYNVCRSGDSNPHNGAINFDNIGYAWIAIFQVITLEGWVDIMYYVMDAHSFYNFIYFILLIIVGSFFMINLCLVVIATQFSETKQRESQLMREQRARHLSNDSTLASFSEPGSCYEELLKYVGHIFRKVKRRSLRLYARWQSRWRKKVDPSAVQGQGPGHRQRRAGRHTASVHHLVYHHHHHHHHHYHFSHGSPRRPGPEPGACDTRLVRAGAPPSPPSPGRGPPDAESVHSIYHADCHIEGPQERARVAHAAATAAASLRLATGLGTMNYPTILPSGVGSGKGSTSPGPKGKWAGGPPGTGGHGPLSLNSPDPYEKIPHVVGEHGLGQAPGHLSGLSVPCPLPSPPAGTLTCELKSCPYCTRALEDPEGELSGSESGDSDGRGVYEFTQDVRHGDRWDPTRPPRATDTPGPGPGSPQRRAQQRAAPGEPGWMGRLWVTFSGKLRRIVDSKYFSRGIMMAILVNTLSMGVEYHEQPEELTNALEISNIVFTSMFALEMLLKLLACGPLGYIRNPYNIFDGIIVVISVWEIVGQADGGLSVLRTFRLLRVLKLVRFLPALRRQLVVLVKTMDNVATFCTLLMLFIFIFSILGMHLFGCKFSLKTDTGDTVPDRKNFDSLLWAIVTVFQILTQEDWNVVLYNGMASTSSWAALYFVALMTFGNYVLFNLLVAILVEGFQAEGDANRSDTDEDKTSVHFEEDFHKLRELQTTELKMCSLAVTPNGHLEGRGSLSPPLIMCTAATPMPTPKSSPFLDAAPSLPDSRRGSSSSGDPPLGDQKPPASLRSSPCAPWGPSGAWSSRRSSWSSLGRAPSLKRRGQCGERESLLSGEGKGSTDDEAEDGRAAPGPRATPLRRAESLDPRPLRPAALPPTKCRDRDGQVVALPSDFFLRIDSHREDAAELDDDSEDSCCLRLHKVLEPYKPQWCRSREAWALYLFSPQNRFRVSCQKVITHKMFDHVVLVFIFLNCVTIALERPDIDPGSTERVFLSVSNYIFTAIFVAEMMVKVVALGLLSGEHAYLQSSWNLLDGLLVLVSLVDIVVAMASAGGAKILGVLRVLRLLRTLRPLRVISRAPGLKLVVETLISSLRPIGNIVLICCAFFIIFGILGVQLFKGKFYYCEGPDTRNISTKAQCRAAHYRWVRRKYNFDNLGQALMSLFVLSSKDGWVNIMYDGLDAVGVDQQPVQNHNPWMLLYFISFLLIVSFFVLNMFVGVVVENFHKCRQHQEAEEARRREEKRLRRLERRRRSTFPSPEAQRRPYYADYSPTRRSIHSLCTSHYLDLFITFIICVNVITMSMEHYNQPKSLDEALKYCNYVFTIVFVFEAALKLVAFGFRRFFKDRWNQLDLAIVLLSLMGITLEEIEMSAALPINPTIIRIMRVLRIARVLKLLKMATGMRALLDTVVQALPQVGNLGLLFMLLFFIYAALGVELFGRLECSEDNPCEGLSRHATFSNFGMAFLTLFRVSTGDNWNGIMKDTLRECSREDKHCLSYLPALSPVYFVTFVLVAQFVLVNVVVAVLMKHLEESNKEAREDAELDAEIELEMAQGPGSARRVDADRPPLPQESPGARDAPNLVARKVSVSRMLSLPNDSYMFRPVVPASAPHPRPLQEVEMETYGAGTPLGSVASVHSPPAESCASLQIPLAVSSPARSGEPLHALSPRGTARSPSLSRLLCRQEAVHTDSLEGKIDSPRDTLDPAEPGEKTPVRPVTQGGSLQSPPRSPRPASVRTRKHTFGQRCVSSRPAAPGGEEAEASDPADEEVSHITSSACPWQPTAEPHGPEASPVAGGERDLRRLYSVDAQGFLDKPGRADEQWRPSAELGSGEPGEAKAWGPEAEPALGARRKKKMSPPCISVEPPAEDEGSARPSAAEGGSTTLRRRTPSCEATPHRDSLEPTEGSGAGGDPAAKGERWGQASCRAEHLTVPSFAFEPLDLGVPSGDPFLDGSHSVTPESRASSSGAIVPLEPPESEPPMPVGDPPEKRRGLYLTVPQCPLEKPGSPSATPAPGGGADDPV

| pIC50 | Compound | also measured |
| --- | --- | --- |
| 7.52 | O=C(NC1CC12CCN(CCc1ccccc1)CC2)c1cc(Cl)cc(Cl)c1 (centres unmarked) [Example 13, 3,5-Dichloro-N-(6-phenethyl-6-azaspiro[2.5]octan-1-yl)benzamide] |  |
| 7.05 | CC(C)(C)CCN1CCC2(CC1)CC2NC(=O)c1cc(C(F)(F)F)ccc1Cl (centres unmarked) [Example 142, 2-Chloro-N-(6-(3,3-dimethylbutyl)-6-azaspiro[2.5]octan-1-yl)-5-(trifluoromethyl)benzamide] |  |
| 7.15 | O=C(NC1CC12CCN(CC(O)c1ccc(C(F)(F)F)cc1)CC2)c1cc(Cl)cc(Cl)c1 (centres unmarked) [Example 59, 3,5-Dichloro-N-(6-(2-hydroxy-2-(4-(trifluoromethyl)phenyl)ethyl)-6-azaspiro[2.5]octan-1-yl)benzamide] |  |
| 6.80 | O=C(NC1CC12CCN(CCc1ccc(Cl)cc1)CC2)c1cc(Cl)cc(Cl)c1 (centres unmarked) [Example 41, 3,5-Dichloro-N-(6-(4-chlorophenethyl)-6-azaspiro[2.5]octan-1-yl)benzamide] |  |
| 6.82 | O=C(NC1CC12CCN(CC1CCOCC1)CC2)c1cc(Cl)cc(Cl)c1 (centres unmarked) [Example 46, 3,5-Dichloro-N-(6-((tetrahydro-2H-pyran-4-yl)methyl)-6-azaspiro[2.5]octan-1-yl)benzamide] |  |
|  | COc1cccc(C(=O)NCC2(C)CCN(CC(=O)NC(C)(C)C)CC2)c1 [Example 108, N-((1-(2-(tert-butylamino)-2-oxoethyl)-4-methylpiperidin-4-yl)methyl)-3-methoxybenzamide] | inhibition at 1 µM [1]: 53% |
| 7.05 | CC(C)(C)CCN1CCC2(CC1)CC2NC(=O)C12CC3CC(CC(C3)C1)C2 (centres unmarked) [Example 30, N-[6-(3,3-Dimethylbutyl)-6-azaspiro[2.5]octan-1-yl]adamantane-1-carboxamide] |  |
|  | COc1cc(OC)cc(C(=O)NC2CC23CCN(CCC(C)(C)C)CC3)c1 (centres unmarked) [Example 33, N-(6-(3,3-Dimethylbutyl)-6-azaspiro[2.5]octan-1-yl)-3,5-dimethoxybenzamide] | inhibition at 1 µM [1]: 63% |
|  | O=C(Nc1nnc(-c2ccccc2)o1)c1cnccn1 [Example 124, N-(5-Phenyl-1,3,4-oxadiazol-2-yl)pyrazine-2-carboxamide] | inhibition at 1 µM [1]: 7.1% |
| 7.05 | O=C(NC1CC12CCN(CC(O)c1ccc(F)cc1)CC2)c1cc(F)cc(Cl)c1 (single isomer, unassigned) [Example 139, 3-Chloro-5-fluoro-N-((1R)-6-(2-(4-fluorophenyl)-2-hydroxyethyl)-6-azaspiro[2.5]octan-1-yl)benzamide or 3-Chloro-5-fluoro-N-((1S)-6-(2-(4-fluorophenyl)-2-hydroxyethyl)-6-azaspiro[2.5]octan-1-yl)benzamide] |  |
| 7.00 | CC(C)(C)NC(=O)CN1CCC2(CC1)CC2CNc1cc(Cl)cc(Cl)c1 (centres unmarked) [Example 93] |  |
| 7.15 | CC(C)(C)CCN1CCC2(CC1)CC2N(CC1CC1)C(=O)c1cc(Cl)cc(Cl)c1 (centres unmarked) [Example 55, 3,5-Dichloro-N-(cyclopropylmethyl)-N-(6-(3,3-dimethylbutyl)-6-azaspiro[2.5]octan-1-yl)benzamide] |  |
| 6.21 | CC(C)(C)NC(=O)CN1CCC2(CC1)C[C@@H]2NC(=O)[C@]12C[C@@]3(F)C[C@](F)(C[C@](F)(C3)C1)C2 (single isomer, unassigned) [Example 131, (3S,5S,7S)—N—((R)-6-(2-(tert-Butylamino)-2-oxoethyl)-6-azaspiro[2.5]octan-1-yl)-3,5,7-trifluoroadamantane-1-carboxamide or (3S,5S,7S)—N—((S)-6-(2-(tert-Butylamino)-2-oxoethyl)-6-azaspiro[2.5]octan-1-yl)-3,5,7-trifluoroadamantane-1-carboxamide] |  |
|  | CC(C)(C)NC(=O)CN1CCC2(CC1)CC2NC(=O)c1ccccc1 (centres unmarked) [Example 4, N-(6-(2-(tert-Butylamino)-2-oxoethyl)-6-azaspiro[2.5]octan-1-yl)benzamide] | inhibition at 3 µM (HEK293, Table 1 primary screening, 3 μM as indicated in cell, read-out: % inhibition at 3 μM): 24.7% |
| 7.40 | O=C(NC1CC12CCN(CCCc1ccccc1)CC2)c1cc(Cl)cc(Cl)c1 (centres unmarked) [Example 45, 3,5-Dichloro-N-(6-(3-phenylpropyl)-6-azaspiro[2.5]octan-1-yl)benzamide] |  |
| 7.22 | CC(C)(C)CCN1CCC2(CC1)CC2C(=O)Nc1cc(Cl)cc(Cl)c1 (centres unmarked) [Example 91, N-(3,5-Dichlorophenyl)-6-(3,3-dimethylbutyl)-6-azaspiro[2.5]octane-1-carboxamide] |  |
| 6.64 | CC(C)(C)NC(=O)CN1CCC2(CCC2NC(=O)c2cc(Cl)cc(Cl)c2)CC1 (stereo in doubt) [Example 114, (R)—N-(7-(2-(tert-Butylamino)-2-oxoethyl)-7-azaspiro[3.5]nonan-1-yl)-3,5-dichlorobenzamide] |  |
|  | O=C(CN1CCC(CO)(CNC(=O)c2ccccc2F)CC1)Nc1ccccc1 [Example 110, 2-fluoro-N-((4-(hydroxymethyl)-1-(2-oxo-2-(phenylamino)ethyl)piperidin-4-yl)methyl)benzamide] | inhibition at 1 µM [1]: 44% |
| 7.15 | O=C(N[C@@H]1CC12CCN(CC(O)c1ccc(C(F)(F)F)cc1)CC2)c1cc(F)cc(Cl)c1 (single isomer, unassigned) [Example 137, 3-Chloro-5-fluoro-N-((1R)-6-(2-hydroxy-2-(4-(trifluoromethyl)phenyl)ethyl)-6-azaspiro[2.5]octan-1-yl)benzamide or 3-Chloro-5-fluoro-N-((1S)-6-(2-hydroxy-2-(4-(trifluoromethyl)phenyl)ethyl)-6-azaspiro[2.5]octan-1-yl)benzamide] |  |
| 7.10 | O=C(CN1CCC2(CC1)CC2NC(=O)c1cc(Cl)cc(Cl)c1)c1ccc(C(F)(F)F)cc1 (centres unmarked) [Example 50, 3,5-Dichloro-N-(6-(2-oxo-2-(4-(trifluoromethyl)phenyl)ethyl)-6-azaspiro[2.5]octan-1-yl)benzamide] |  |
| 7.10 | CC(C)(C)CCN1CCC2(CC1)CC2NC(=O)Cc1cc(C(F)(F)F)cc(C(F)(F)F)c1 (centres unmarked) [Example 31, 2-(3,5-Bis(trifluoromethyl)phenyl)-N-(6-(3,3-dimethylbutyl)-6-azaspiro[2.5]octan-1-yl)acetamide] |  |
|  | CC(C)CN1CCC2(CC1)CC2NC(=O)c1ccccc1 (centres unmarked) [Example 1, N-(6-Isobutyl-6-azaspiro[2.5]octan-1-yl)benzamide] | inhibition at 3 µM (HEK293, read-out: % inhibition at 3 μM): 15.3% |
| 6.59 | O=C(NC1CC12CCN(CCCC1CCOCC1)CC2)c1cc(Cl)cc(Cl)c1 (centres unmarked) [Example 48, 3,5-Dichloro-N-(6-(3-(tetrahydro-2H-pyran-4-yl)propyl)-6-azaspiro[2.5]octan-1-yl)benzamide] |  |
|  | CC(C)(C)CCN1CCC2(CC1)CC2NS(=O)(=O)c1cc(Cl)cc(Cl)c1 (centres unmarked) [Example 51, 3,5-Dichloro-N-(6-(3,3-dimethylbutyl)-6-azaspiro[2.5]octan-1-yl)benzenesulfonamide] | inhibition at 1 µM [1]: 47% |
| 6.70 | CC(C)(C)NC(=O)CN1CCC2(CC1)C[C@H]2C(=O)Nc1cc(F)cc(C(F)(F)F)c1 (single isomer, unassigned) [Example 133, (R)-6-(2-(tert-Butylamino)-2-oxoethyl)-N-(3-fluoro-5-(trifluoromethyl)phenyl)-6-azaspiro[2.5]octane-1-carboxamide or (S)-6-(2-(tert-Butylamino)-2-oxoethyl)-N-(3-fluoro-5-(trifluoromethyl)phenyl)-6-azaspiro[2.5]octane-1-carboxamide] |  |
| 6.89 | CC(C)(C)NC(=O)CN1CCC2(CC1)CC2C(=O)Nc1cc(Cl)cc(Cl)c1 (centres unmarked) [Example 90] |  |
